Experimental data from patent US20070243215A1, “Adjuvant for Dna Vaccines” (priority 2004, published 2007).

Tested on: N202/1A tumor cells
Test: Serum transfer and tumor cell challenge
Assay type: in vivo
Details: 150 μL pooled serum from treated donor mice; challenge 24 h later subcutaneously with 10^5 N202/1A tumor cells
Protocol: Animals were treated as in Example 1 for each of the following groups: (1) Immunized with pCMV-ECD-TM, not treated with IRM (HER-2/neu); (2) Immunized with pCMV-ECD-TM, treated with IRM2 (IRM+HER-2/neu); or (3) untreated (Control). Two weeks after the immunization period was completed, sera were harvested from the animals and pooled among animals receiving the same treatment.
150 μL of pooled serum was injected into eight-week old animals (5 animals/treatment serum). Twenty-four hours after administration of the serum, each mouse was challenged with subcutaneously with 10^5 N202/1A tumor cells and monitored to register the development of tumors.

CC(C)Cn1cnc2c(N)nc3ccccc3c21 [IRM2, 1-(2-methylpropyl)-1H-imidazo[4,5-c]quinolin-4-amine]
percentage of recipient mice remaining tumor free (protection against tumor development): An even greater percentage
